From patent US20080280815A1, “Lowering Serum Lipids” (Novo Nordisk A/S, priority 2000, published 2008)

How the values were obtained:
[1] = tested on: Wistar rats subjected to neonatal monosodium glutamate treatment (MSG); assay: Acute and subchronic anorectic effects, model of hypothalamic obesity (MSG rats); type: in vivo, rat
Experimental: Solutions were always made fresh approximately 1 hour prior to use and stored at 4° C. in sterile tubes.

normal Wistar rats = assay: Acute and subchronic anorectic effects, normal Wistar rats; type: in vivo, rat; conditions: lowered from 1.58±0.1, 100 μg/kg s.c. twice daily
[2] = tested on: male Zucker Diabetic Fatty fa/fa (ZDF) rat; assay: Long-term treatment of male Zucker Diabetic Fatty fa/fa (ZDF) rats, model of Type 2 diabetes; type: in vivo; conditions: for Free fatty acids / Total cholesterol: mean ± SEM
Excerpt: The male Zucker Diabetic Fatty fa/fa (ZDF) rat is a model of Type 2 diabetes. The rats are insulin resistant but normoglycemic from birth and they develop diabetes from about week 7 to week 10 of age. During the transitional period, the animals go through a state of impaired glucose tolerance. Although the animals are hyperinsulinemic before diabetes onset and during the early stages of diabetes, they later lose glucose-stimulated insulin secretion and finally become almost completely insulinopenic.
Animals were between 7 and 8 weeks old when dosing was initiated, and fed glucose levels were not different between the groups before dosing began. […] After 36 days of dosing, an oral glucose tolerance test was performed in the animals after an 11-hour fast. One g/kg of glucose was administered by oral gavage and subsequent measurements of blood glucose and plasma insulin were made.
In addition to the effects on blood glucose and insulin, we also studied the effects of long-term treatment on lipid parameters. Thus, at the termination of the study, non-fasted plasma measurements of total cholesterol, free fatty acids were performed.

[3] = 100 μg/kg s.c. twice daily, normal and MSG rats not distinguished
[4] = initial effect, normalised within few days of treatment
[5] = 150 μg/kg s.c. bi-daily, non-fasted plasma at termination
[6] = group B, 30 μg/kg s.c. bi-daily, non-fasted plasma at termination
[7] = group C, 150 μg/kg s.c. bi-daily, non-fasted plasma at termination

- diuresis [1, 4]: increases
- water intake [1, 4]: Initial decreases
- plasma parameters of renal function ([1]; throughout the experiment): remained normal
Substance: Arg^34, Lys^26(N^ε-(γ-Glu(N^α-hexadecanoyl)))-GLP-1(7-37) [GLP1]
- body weight [1, 3]: reduced
- food intake [1, 3]: inhibition
- plasma levels of triglycerides (normal Wistar rats): 1.21 ± 0.3 mM
- free fatty acids, group C compared to group A (vehicle) [2, 5]: significant reduction
- total cholesterol, group C compared to group A (vehicle) [2, 5]: significant reduction
- blood glucose state during a normal 24-hour feeding schedule ([2]; group B, 30 μg/kg s.c. bi-daily, after 10 days of dosing): hyperglycemic
- Free fatty acids [2, 6]: 0.29 ± 0.04 mM
- Total cholesterol [2, 6]: 2.9 ± 0.1 mM
- blood glucose levels during a normal 24-hour feeding schedule vs vehicle- and low-dose-treated animals ([2]; group C, 150 μg/kg s.c. bi-daily, after 10 days of dosing): significantly lower
- blood glucose levels during a normal 24-hour feeding schedule ([2]; group C, 150 μg/kg s.c. bi-daily, after 10 days of dosing, compared to initial measurements): unchanged
- glycemic level in oral glucose tolerance test vs groups A and B ([2]; group C, 150 μg/kg s.c. bi-daily, after 36 days of dosing, 11-hour fast, 1 g/kg glucose by oral gavage): significantly lower
- Free fatty acids [2, 7]: 0.20 ± 0.02 mM
- Total cholesterol [2, 7]: 2.2 ± 0.1 mM
